Test results as given in the supplement of paper PMC11208160.

test: recombinant barcode read abundance after kanamycin selection (control-corrected) (log10(CPM+1)); higher = more efficient recombination; sequences stand for … in AGTGCAGAGAAAATCGGCCAGTTTTCTCTGCCTGCAGTCCGCATGCCGT…AGATTTATGCAGCGGACTGCCTTTCTCCCAAAGTGATAAACCGGACAGTATCATGGACCGGTTTTCCCGGTAATCCGTATTTGCAAGGTTGGTTTCACT; site = the 11-nt target
Summary of the method: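 Duplicate cultures were plated either on chloramphenicol/ampicillin LB agar, serving as control, or on chloramphenicol/ampicillin/kanamycin with 0.1 mM IPTG. These came from a pooled E. coli library co-electroporated with a donor plasmid, each member pairing a target with an IS621 bridge RNA target-binding loop. Recombination efficiency equals averaged, control-corrected counts per million of recombinant-junction barcodes. It is listed as log10(CPM+1).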
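Further: IS621 recombinase and bridge RNA in Escherichia coli cells.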

Row | Sequence | recombinant barcode read abundance (log10)
1 | AGAGCGACTTGGGTTCTAACCTGTTGCTA (site CTCTACCCTCT) | 0.147
2 | AGAGCTCCTTGGGTTCTAACCTGTTGCCG (site AGAGCTCCTCG) | 1.03
3 | AGAGCTCCTTGGGTTCTAACCTGTTGCCG (site AGATCTCCTAG) | 0.468
4 | AGAGGAGCTTGGGTTCTAACCTGTTGCAG (site AGAGATGCTCT) | 0.115
5 | AGAGGAGCTTGGGTTCTAACCTGTTGCAG (site AGAGGAGCTCT) | 1.79
6 | AGAGGGACTTGGGTTCTAACCTGTTGCCT (site AGAGAGACTAG) | 1.25
7 | AGAGGGACTTGGGTTCTAACCTGTTGCCT (site AGAGCGACTAG) | 0.0189
8 | AGAGGGACTTGGGTTCTAACCTGTTGCCT (site AGAGGGACTAG) | 2.34
9 | AGAGGGACTTGGGTTCTAACCTGTTGCCT (site AGAGTGACTAG) | 0.0172
10 | AGAGTAGCTTGGGTTCTAACCTGTTGCAC (site AGAGTAGCTGT) | 2.41
11 | AGAGTAGCTTGGGTTCTAACCTGTTGCAC (site GTTTATACTTG) | 0.0243
12 | AGAGTAGCTTGGGTTCTAACCTGTTGCTA (site AGAGTAGCTTA) | 1.31
13 | AGAGTAGCTTGGGTTCTAACCTGTTGCTA (site CTCCCGACTGC) | 0.0353
14 | AGATAGCCTTGGGTTCTAACCTGTTGCCT (site AGATAGCCTAG) | 2.01
15 | AGATAGCCTTGGGTTCTAACCTGTTGCCT (site CGATAGCCTAG) | 0.102
16 | AGATAGCCTTGGGTTCTAACCTGTTGCCT (site GGATAGCCTAG) | 0.157
17 | AGATAGCCTTGGGTTCTAACCTGTTGCCT (site TGATAGCCTAG) | 0.206
18 | AGATCCACTTGGGTTCTAACCTGTTGCCT (site AGATCCACTAG) | 0.832
19 | AGATCCACTTGGGTTCTAACCTGTTGCCT (site CGATCCACTAG) | 0.0967
20 | AGATCCACTTGGGTTCTAACCTGTTGCCT (site GGATCCACTAG) | 0.0847

Row | Sequence | recombinant barcode read abundance (log10)
21 | AGATCCACTTGGGTTCTAACCTGTTGCCT (site TGATCCACTAG) | 0.0724
22 | AGATGGACTTGGGTTCTAACCTGTTGCAG (site AGATGGACTCT) | 2.52
23 | AGATGGACTTGGGTTCTAACCTGTTGCAG (site AGATGGCCTAT) | 0.0344
24 | AGATTCGCTTGGGTTCTAACCTGTTGCCG (site AGATTCCCTCG) | 0.0487
25 | AGATTCGCTTGGGTTCTAACCTGTTGCCG (site AGATTCGCTCG) | 0.941
26 | AGATTTACTTGGGTTCTAACCTGTTGCCT (site AAACTTACTAG) | 1.28
27 | AGATTTACTTGGGTTCTAACCTGTTGCCT (site AGATTTACTAG) | 0.143
28 | AGCACGACTTGGGTTCTAACCTGTTGCTG (site AGCACGACTCA) | 0.684
29 | AGCACGACTTGGGTTCTAACCTGTTGCTG (site AGCAGGACTCG) | 0.157
30 | AGCAGAGCTTGGGTTCTAACCTGTTGCTG (site AGCAGAGCTCA) | 1.39
31 | AGCAGAGCTTGGGTTCTAACCTGTTGCTG (site AGCAGAGCTCC) | 1.94
32 | AGCAGAGCTTGGGTTCTAACCTGTTGCTG (site AGCAGAGCTCG) | 0.133
33 | AGCAGAGCTTGGGTTCTAACCTGTTGCTG (site AGCAGAGCTCT) | 0.93
34 | AGCATCACTTGGGTTCTAACCTGTTGCCT (site AACATCACTCG) | 0.135
35 | AGCATCACTTGGGTTCTAACCTGTTGCCT (site AGCATCACTAG) | 0.499
36 | AGCATTGCTTGGGTTCTAACCTGTTGCCT (site AGCATTGCTAG) | 0.235
37 | AGCATTGCTTGGGTTCTAACCTGTTGCCT (site AGCCTTGCTAG) | 0.629
38 | AGCATTGCTTGGGTTCTAACCTGTTGCCT (site AGCGTTGCTAG) | 0.724
39 | AGCATTGCTTGGGTTCTAACCTGTTGCCT (site AGCTTTGCTAG) | 0.0996
40 | AGCCACCCTTGGGTTCTAACCTGTTGCCT (site AGCCACACTAG) | 0.201

Row | Sequence | recombinant barcode read abundance (log10)
41 | AGCCACCCTTGGGTTCTAACCTGTTGCCT (site AGCCACCCTAG) | 0.425
42 | AGCCACCCTTGGGTTCTAACCTGTTGCCT (site AGCCACGCTAG) | 0.265
43 | AGCCACCCTTGGGTTCTAACCTGTTGCCT (site AGCCACTCTAG) | 0.522
44 | AGCCGCCCTTGGGTTCTAACCTGTTGCAT (site AGCCGCCCTAT) | 0.172
45 | AGCCGCCCTTGGGTTCTAACCTGTTGCAT (site CGCCGCCCTAG) | 0.119
46 | AGCCGTACTTGGGTTCTAACCTGTTGCCT (site AGACGTACTAG) | 0.129
47 | AGCCGTACTTGGGTTCTAACCTGTTGCCT (site AGCCGTACTAG) | 0.341
48 | AGCCGTACTTGGGTTCTAACCTGTTGCCT (site AGGCGTACTAG) | 0.318
49 | AGCCGTACTTGGGTTCTAACCTGTTGCCT (site AGTCGTACTAG) | 0.0183
50 | AGCCTGCCTTGGGTTCTAACCTGTTGCCT (site AGCCTGACTAG) | 0.0617
51 | AGCCTGCCTTGGGTTCTAACCTGTTGCCT (site AGCCTGCCTAG) | 0.389
52 | AGCCTGCCTTGGGTTCTAACCTGTTGCCT (site AGCCTGGCTAG) | 0.549
53 | AGCCTGCCTTGGGTTCTAACCTGTTGCCT (site AGCCTGTCTAG) | 0.0826
54 | AGCCTGTCTTGGGTTCTAACCTGTTGCCT (site AGCCTGACTAG) | 0.444
55 | AGCCTGTCTTGGGTTCTAACCTGTTGCCT (site AGCCTGCCTAG) | 0
56 | AGCCTGTCTTGGGTTCTAACCTGTTGCCT (site AGCCTGGCTAG) | 0.143
57 | AGCCTGTCTTGGGTTCTAACCTGTTGCCT (site AGCCTGTCTAG) | 1.36
58 | AGCGAATCTTGGGTTCTAACCTGTTGCCG (site AGCGAATCTCG) | 0.217
59 | AGCGAATCTTGGGTTCTAACCTGTTGCCG (site GAGCGTCCTTA) | 0.232
